Experimental findings from patent US20260315446A1, “ANTIFUNGAL COMPOUNDS AND USES THEREOF” (priority 2023, published 2026) are described below.

Entries after “also recorded” stand apart in the source; their conditions may differ. Like-named read-outs stand apart in the source and are kept apart here.

Data set [1] can be described thus: Pharmacokinetics in whole blood. The data set is classed as in vivo, mouse (CD-1). Conditions: for Cmax / Tmax / AUC / CL/F / half-life: mouse, in vivo, ip, 40 mg/kg, 40 mg/kg i.p. single dose, whole blood; for AUC: read-out: AUC (area under the curve); for CL/F: read-out: CI/F (clearance as Dose/AUCINF) (converted). Here is the method:
For the lead compound JH-FK-08, the mechanism of action resulting in antifungal activity was tested for conservation of calcineurin inhibition. To probe the JH-FK-08 mechanism of action, MICs of JH-FK-08 were determined with fungal mutants that lack the drug-binding protein FKBP12 or have mutations in the binding site on calcineurin that prevent FKBP12-FK506 binding and inhibition. […] Taken together, these findings support the hypothesis that JH-FK-08 requires FKBP12 for antifungal activity, and the target of the FKBP12-JH-FK-08 complex is calcineurin. The length of time that drugs are active in vivo is critical information relevant to drug development, and the time frame of drug activity can have a drastic impact on treatment regimen and efficacy. Therefore, the pharmacokinetic profiles of FK506 and JH-FK-08 were investigated. Three male and three female CD1 mice were administered a single dose of JH-FK-08 or FK506 at 40 mg/kg. Whole blood samples were taken over a 24-hour period, and the drug concentration remaining in the blood was determined. Pharmacokinetic parameters were calculated using a non-compartmental approach (see, Gabrielsson J, Weiner D. 2012. Methods Mot Biol Clifton NJ 929:377-389). […] When assessing specific pharmacokinetic measures, sex differences began to emerge.
Male (n=3, avg. 28 g) and female (n=3, avg. 25 g) CD-1 mice were injected intraperitoneally with 40 mg/kg of either JH-FK-08 or FK506. The drug formulation was 10% Kolliphor/10% ethanol/80% PBS given as 10 μL/g body weight (i.e., 200 μL per 20 g mouse). Blood (~30 μL) was collected serially (“tail snip”) at 10, 20, and 45 min and 1.5, 3, 6, 12, and 24 h into vials containing […] of 75 mg/mL K2EDTA in water and immediately frozen until the day of liquid chromatography-tandem-mass spectroscopy (LC/MS/MS) analysis. Blood concentration/time data were utilized to calculate relevant PK parameters using the non-compartmental approach and extravascular administration model within WinNonlin (2.1) software.
In a 0.5-mL polypropylene vial, 10 μL blood and 20 μL of acetonitrile fortified with 100 ng/mL FK520 (internal standard) were vigorously agitated in the FastPrep FP120 apparatus (Thermo-Savant) at speed four for 45 s. After centrifugation for 5 min at 16,000 rpm, 20 μL of supernatant was transferred to a polypropylene autosampler vial. LC/MS/MS (Agilent 1200 series HPLC and Sciex/Applied Biosystems API 5500 QTrap) was utilized to quantify JH-FK-08 and FK506 in mouse blood. Analytical column: Agilent Eclipse Plus (C18, 1.8 μm, 50×4.6 mm), at 40° C. Mobile phase: (A) 0.1% formic acid, 10 mM ammonium acetate, 2% acetonitrile in water, and (B) methanol. Elution gradient: 0-0.1 min 30%-98% B, 0.1-1.5 min 98% B, 1.5-1.6 min 98%-30% B, and 1.6-2.1 min 30% B. Run time: 5 min. Injection volume: 10 μL. Mass spectrometer parameters (voltages, gas flow, and temperature) were optimized by infusion of 100 ng/mL of analytes in the mobile phase at 10 μL/min using the Analyst 1.6.2 software tuning module. The MS/MS (m/z) transitions used for quantification were 864.4/846.5 (JH-FK-08), 821.4/768.5 (FK506), and 809.4/756.5 (FK520, internal standard). A set of calibrator samples in drug-free blood was prepared by adding appropriate amounts of pure analyte (JH-FK-08 or FK506) in the […] range. The calibration samples were analyzed alongside the experimental samples. The accuracy acceptance criterion was 85% for each but the lowest level (2.43 ng/mL, 80%, LLOQ). Analyst 1.6.2 software was used for data acquisition, integration of the chromatograms, calibration curve calculation, and quantification of the study samples.

Data set [2] has as its system T follicular helper (Tfh) cells. The experiment in a line: In vivo immunosuppression, T follicular helper cells (Example 3). The following applies: 8 days. Here is the method: The in vivo immunosuppressive effect of JH-FK-08 was assessed by studying T follicular helper (Tfh) cell production in mice. Tfh cells play a role in protection against and response to fungal infections (see, Wong G K, et al., 1998. J Antibiot 51:487-491; Cruz M C, et al., 1999. Mol Cell Biol 19:4101-4112). For this study, immunocompetent C57BL/6 mice received 8 days of twice-daily dosing of vehicle, FK506 (2.5 mg/kg), or JH-FK-08 (20 or 40 mg/kg). Twenty-four hours after the first dose, mice were immunized with NP-OVA to induce an immune response. Cells were analyzed 7 days post immunization, and cell types were analyzed by flow cytometry (FIG. 15B).
Cell surface staining of single cell suspensions was performed in staining buffer (PBS supplemented with 2 mM EDTA and 0.5% BSA). Anti-FcγR (93; Biolegend) was treated to block the Fe receptor before surface staining of primary cells isolated from lymph nodes of NP-OVA-immunized mice. Cells were stained with fixable viability dye (eBioscience) before surface staining to exclude dead cells from analysis. For the detection of intracellular cytokines, cells were additionally incubated with phorbol 12-myristate 13-acetate and ionomycin in the presence of GolgiStop (BD Biosciences) during the final 4 h of incubation. For intracellular staining, cells were fixed and permeabilized with Fixation/Permeabilization Buffer (eBioscience). Flow cytometric analysis was performed utilizing BD FACSCantoII or BD LSRFortessaX20 (BD Biosciences) and FlowJo software (BD Biosciences).
Groups of five female C57BL/6 mice were treated twice daily for 8 days with vehicle, FK506 (2.5 mg/kg), JH-FK-08 (20 mg/kg), or JH-FK-08 (40 mg/kg) via i.p. injection. Twenty-four hours after the first dose, animals were immunized with NP-OVA (100 μg) in alum via subcutaneous injection. Seven days post immunization, mice were sacrificed, and draining lymph nodes were harvested for the analysis of Tfh cells and GC B cells by flow cytometry.

Where [3] appears, read: females, read-out: t1/2 (3-12 h) (half-life) (converted).
Setting [4] is: females, read-out: t1/2 (12-24 h) (half-life) (converted).
Setting [5] is: males, read-out: t1/2 (3-12 h) (half-life) (converted).
[6] abbreviates: males, read-out: t1/2 (12-24 h) (half-life) (converted).

As to `CC[C@@H]1/C=C(\C)C[C@H](C)C[C@H](OC)[C@H]2O[C@@](O)(C(=O)C(=O)N3CCCC[C@H]3C(=O)O[C@H](/C(C)=C/C3CC[C@@H](O)[C@H](OC)C3)[C@H](C)[C@@H](O)C/C1=N/NC(=O)OC)[C@H](C)C[C@@H]2OC` (stereo partly shown) [JH-FK-08], the “whole blood drug concentration over time versus FK506” value in data set [1] (40 mg/kg single dose) is reported as “No significant differences across groups were observed in whole blood samples of drug concentration over time; also recorded: no statistically significant difference between groups”. In addition, the peak concentration (Cmax) came out at 7500 ng/mL in data set [1] (females) and 4070 ng/mL in data set [1] (males). Moreover, the figures for the Tmax in data set [1] (females) and in data set [1] (males) were 2.5 h and 1.25 h, respectively. For the same compound, the results for the AUC in data set [1] (females) and in data set [1] (males) were 31400 ng·h/mL and 15600 ng·h/mL, respectively. In addition, the CL/F is 21.5 mL/min/kg in data set [1] (females) and 46.4 mL/min/kg in data set [1] (males). The half-life was 1.14 h in data set [1] (setting [3]), 1.88 h in data set [1] (setting [4]), 1.29 h in data set [1] (setting [5]) and 2.26 h in data set [1] (setting [6]). Also, the entries for the “production of Tfh cells” value in data set [2] (JH-FK-08 20 mg/kg i.p. twice daily) and in data set [2] (JH-FK-08 40 mg/kg i.p. twice daily) were “no significant effect on the percent of Tfh cells produced compared to vehicle” and “production of Tfh cells was reduced”, respectively.

With `C=CCC1C=C(C)CC(C)CC(OC)C2OC(O)(C(=O)C(=O)N3CCCCC3C(=O)OC(C(C)=CC3CCC(O)C(OC)C3)C(C)C(O)CC1=O)C(C)CC2OC` (stereo not shown) [FK506, reference compound], the Cmax came to 5960 ng/mL in data set [1] (females) and 4510 ng/mL in data set [1] (males). The Tmax in data set [1] (females) amounted to 1.11 h; in data set [1] (males) it was 0.75 h. In addition, the figures for the AUC in data set [1] (females) and in data set [1] (males) were 27100 ng·h/mL and 15200 ng·h/mL, respectively. For the same compound, the values for the CL/F in data set [1] (females) and in data set [1] (males) were 25.9 mL/min/kg and 49.4 mL/min/kg, respectively. For the same compound, the half-life is 1.35 h in data set [1] (setting [3]), 3.59 h in data set [1] (setting [4]), 1.48 h in data set [1] (setting [5]) and 2.46 h in data set [1] (setting [6]). Further, in data set [2] (FK506 2.5 mg/kg i.p. twice daily, 2.5 mg/kg), the “production of Tfh cells” value is reported as “significantly reduced; also recorded: significantly inhibits Tfh cell production at 1/16 of the dose of JH-FK-08”.
